# Results reported in patent US20250127799A1, “DRUG CONJUGATES FOR BONE MARROW PROTECTION” (priority 2023, published 2025).
# Peptide text beside a SMILES is read from it. * marks the point of attachment. X1 = O=C(CCCCCN1C(=O)CC(*)C1=O)NCCCC(O)(P(=O)(O)O)P(=O)(O)O; X2 = O=P(O)(O)SCCNCCCN*
# System: CD2F1 male mice
# Assay: In vivo radioprotective effects: 30-day survival after Cobalt-60 gamma irradiation
# Conditions: 24 h before 9.2 Gy
# Method: (§1) CD2F1 male mice (N=16) were subcutaneously (sc) injected with a single dose of two different conjugates. For one protective drug conjugate (Conjugate 1), the tested doses were 200, 400, and 800 mg/kg. The structure of Conjugate 1 included amifostine as the protective drug, alendronate as the bone-targeting ligand, and a protease-cleavable peptide having the sequence of CKPLGLWAL (SEQ ID NO: 33) with acetylation at the N-terminus (e.g., AcCKPLGLWAL; SEQ ID NO: 74). […] The irradiated mice were monitored for survival for 30 days post-irradiation. […] For the vehicle control group, the mortalities of mice occurred during 8 to 17 days post-irradiation, and the final survival rate was 6.25% (1 out of 16 survived), indicating significant mortality by gamma-irradiation.
# For another protective drug conjugate (Conjugate 2), the tested doses were 250, 500, 600, and 700 mg/kg, and the irradiation was conducted at 24 h post-drug administration. The structure of Conjugate 2 included amifostine as the protective drug, alendronate as the bone-targeting ligand, and a protease-cleavable peptide having the sequence of CPLGLYAL (SEQ ID NO: 29) with acetylation at the N-terminus (e.g., AcCPLGLYAL; SEQ ID NO: 76).
# as §1, with “a” for “two different conjugates. For one”, “1), and” for “1),”, “250, 300,” for “200, 400,”, “350” for “800”, “0% (0” for “6.25% (1”
# as §1, with “CD2F1 male mice (N=16) were subcutaneously (sc) injected CD2F1” for “CD2F1”, “a” for “two different conjugates. For one”, “1), and” for “1),”, “250, 300,” for “200, 400,”, “350” for “800”
# CD2F1 male mice (N=16) were subcutaneously (sc) injected CD2F1 male mice (N=16) were subcutaneously (sc) injected with a single dose of a protective drug conjugate (Conjugate 1), and the tested doses were 50, 100, and 200 mg/kg. The structure of Conjugate 1 included amifostine as the protective drug, alendronate as the bone-targeting ligand, and a protease-cleavable peptide having the sequence of CKPLGLWAL (SEQ ID NO: 33) with acetylation at the N-terminus (e.g., AcCKPLGLWAL; SEQ ID NO: 74). […] The irradiated mice were monitored for survival for […] post-irradiation. […] For the vehicle control group, the mortalities of mice occurred during 8 to 17 days post-irradiation, and the final survival rate was 0% (0 out of 16 survived), indicating significant mortality by gamma-irradiation.
# CD2F1 male mice (N=16) were subcutaneously (sc) injected CD2F1 male mice (N=16) were subcutaneously (sc) injected with a single dose of a protective drug conjugate, i.e., Conjugate 3. The tested doses were 250, 300, and 350 mg/kg. […]
smiles,measurement,setting,value
CC(=O)N[C@@H](CSC1CC(=O)N(CCCCCC(=O)NCCCC(O)(P(=O)(O)O)P(=O)(O)O)C1=O)C(=O)N1CCC[C@H]1C(=O)N[C@@H](CC(C)C)C(=O)NCC(=O)N[C@@H](CC(C)C)C(=O)N[C@@H](Cc1ccc(O)cc1)C(=O)N[C@@H](C)C(=O)N[C@@H](CC(C)C)C(=O)NCCCNCCSP(=O)(O)O (stereo partly shown) [Conjugate 2] (Ac-C(X1)PLGLYAL-X2),30-day survival rate,250 mg/kg sc,68.75%
same,30-day survival rate,500 mg/kg sc,75%
same,30-day survival rate,600 mg/kg sc,93.75%
same,30-day survival rate,700 mg/kg sc,100%
